Reference: patent US9670227B2, “Thienopyrimidine derivatives, a process for their preparation and pharmaceutical compositions containing them” (LES LABORATOIRES SERVIER, priority 2013, dated 2017)
Where two headings read alike, the source gives them in different places.

Target: Mcl-1 protein (UniProtKB primary accession number: Q07820) (Homo sapiens, UniProt Q07820)
Test: Inhibition of Mcl-1 by fluorescence polarisation, Method 1
Type: binding
Conditions: read-out: IC50 (M) Mcl-1 FP
Method: The relative binding potency of each compound was determined via Fluorescence Polarisation (FP).
An 11 point serial dilution of each compound was prepared in DMSO and 2 μl transferred into flat bottomed, low binding, 384-well plate (final DMSO concentration 5%). 38 μl of buffer (10 mM 4-(2-hydroxyethyl)-1-piperazineethanesulfonic acid [HEPES], 150 mM NaCl, 0.05% Tween 20, pH 7.4), containing the Fluorescein labelled ligand (final concentration 1 nM) and Mcl-1 protein (final concentration 5 nM) was then added.

[1] = fluorescence polarisation test, Method 2 values are underlined in the patent (underlining not visible here)
[2] = fluorescence polarisation, Method 1, or Method 2

Mcl-1 protein, sequence (Q07820 whole entry): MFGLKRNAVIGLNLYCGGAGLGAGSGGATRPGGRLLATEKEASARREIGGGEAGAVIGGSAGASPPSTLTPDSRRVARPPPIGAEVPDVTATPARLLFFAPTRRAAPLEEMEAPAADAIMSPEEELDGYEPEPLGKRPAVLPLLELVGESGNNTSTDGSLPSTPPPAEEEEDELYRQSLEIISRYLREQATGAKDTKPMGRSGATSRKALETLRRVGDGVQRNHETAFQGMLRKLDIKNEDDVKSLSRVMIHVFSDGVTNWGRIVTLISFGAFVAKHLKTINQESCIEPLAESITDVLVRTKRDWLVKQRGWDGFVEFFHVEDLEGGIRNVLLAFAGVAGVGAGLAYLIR

| Compound | IC50 [1] [M] | IC50 [2] [M] |
| --- | --- | --- |
| Cc1c(-c2c(-c3ccc(F)o3)sc3ncnc(OC(Cc4ccccc4OCc4ccccn4)C(=O)O)c23)ccc(OCCN2CCN(C)CC2)c1Cl (single isomer, unassigned) [Example 165] | 1.6e-06 | – |
| Cc1c(-c2c(-c3ccc(F)o3)sc3ncnc(OC(Cc4ccccc4OCc4ccccn4)C(=O)O)c23)ccc(OCCN2CCN(C)CC2)c1Cl (single isomer, unassigned) [Example 166] | 6e-09 | – |
| COc1ccccc1CC(Oc1ncnc2sc(-c3ccco3)c(-c3ccc(OC4CCCCN(C)C4)c(Cl)c3C)c12)C(=O)O (single isomer, unassigned) [Example 300, (2R)-2-{[(5Sa)-5-{3-chloro-2-methyl-4-[(3R or S)-(1-methylazepan-3-yl)oxy]phenyl}-6-(furan-2-yl)thieno[2,3-d]pyrimidin-4-yl]oxy}-3-(2-methoxyphenyl)propanoic acid] | 3.7e-08 | – |
| COc1ccccc1CC(Oc1ncnc2sc(-c3ccco3)c(-c3ccc(OCCC4CN(C)CCO4)c(Cl)c3C)c12)C(=O)O (single isomer, unassigned) [Example 318] | 3e-08 | – |
| COc1ccccc1C[C@@H](Oc1ncnc2sc(-c3ccco3)c(-c3ccc(OCCN4CCN(C)CC4)c(F)c3C)c12)C(=O)O (single isomer, unassigned) [Example 333] | 7.9e-07 | – |
| Cc1c(-c2c(-c3ccco3)sc3ncnc(O[C@@H](C(=O)O)[C@@H](O)c4ccccc4)c23)ccc(OCCN2CCN(C)CC2)c1Cl (single isomer, unassigned) [Example 342] | 3.5e-07 | – |
| Cc1c(-c2c(-c3ccco3)sc3ncnc(O[C@@H](C(=O)O)[C@@H](O)c4ccccc4)c23)ccc(OCCN2CCN(C)CC2)c1Cl (single isomer, unassigned) [Example 343] | 2.5e-07 | – |
| CC#Cc1sc2ncnc(O[C@H](Cc3ccccc3OC)C(=O)O)c2c1-c1cc(F)c(OC)c(Cl)c1C (single isomer, unassigned) [Example 470] | – | 4.8e-07 |
| CC#Cc1sc2ncnc(O[C@H](Cc3ccccc3OC)C(=O)O)c2c1-c1cc(F)c(OC)c(Cl)c1C (single isomer, unassigned) [Example 471] | – | 6.3e-09 |
| CC#Cc1sc2ncnc(O[C@H](Cc3ccccc3OC)C(=O)O)c2c1-c1ccc(CCCN(C)C)c(Cl)c1C (single isomer, unassigned) [Example 478] | – | 5.3e-07 |
| CC#Cc1sc2ncnc(O[C@H](Cc3ccccc3OC)C(=O)O)c2c1-c1ccc(CCCN(C)C)c(Cl)c1C (single isomer, unassigned) [Example 479] | – | 1.1e-08 |
| COc1ccccc1CC(Oc1ncnc2sc(C3CCCO3)c(-c3ccc(OCCN4CCN(C)CC4)c(Cl)c3C)c12)C(=O)O (single isomer, unassigned) [Example 590, (2R)-2-{[(5Sa)-5-{3-chloro-2-methyl-4-[2-(4-methylpiperazin-1-yl)ethoxy]phenyl}-6-((2S or R)-tetrahydrofuran-2-yl)thieno[2,3-d]pyrimidin-4-yl]oxy}-3-(2-methoxyphenyl)propanoic acid] | – | 8.4e-08 |
| Cc1c(-c2c(-c3ccc(F)cc3)sc3ncnc(OC(Cc4ccccc4OCC4CCCO4)C(=O)O)c23)ccc(OC2CCCN(C)C2)c1Cl (single isomer, unassigned) [Example 650, (2R)-2-{[(5Sa)-5-{3-chloro-2-methyl-4-[((3R or S)-1-methylpiperidin-3-yl)oxy]phenyl}-6-(4-fluorophenyl)thieno[2,3-d]pyrimidin-4-yl]oxy}-3-{2-[(2R)-tetrahydrofuran-2-ylmethoxy]phenyl}propanoic acid] | – | 5.1e-08 |
| COc1ccccc1C[C@@H](Oc1ncnc2sc(-c3ccc(F)cc3)c(-c3ccc(CCCN4CCN(C)CC4)c(Cl)c3C)c12)C(=O)O (single isomer, unassigned) [Example 653] | – | 1.6e-08 |
| COc1ccccc1CC(Oc1ncnc2sc(-c3ccc(F)cc3)c(-c3ccc(OCCN4CCN(C)CC4)c(Cl)c3C)c12)C(=O)O [Example 1, (2R)-2-{[(5Sa)-5-{3-chloro-2-methyl-4-[2-(4-methylpiperazin-1-yl)ethoxy]phenyl}-6-(4-fluorophenyl)thieno[2,3-d]pyrimidin-4-yl]oxy}-3-(2-methoxyphenyl)propanoic acid] | 8e-08 | – |
| Cc1c(-c2c(-c3ccc(F)cc3)sc3ncnc(OC(Cc4ccccc4OCC4CCCO4)C(=O)O)c23)ccc(OCCN2CCN(C)CC2)c1Cl [Example 2, (2R)-2-{[(5Sa)-5-{3-chloro-2-methyl-4-[2-(4-methylpiperazin-1-yl)ethoxy]phenyl}-6-(4-fluorophenyl)thieno[2,3-d]pyrimidin-4-yl]oxy}-3-{2-[(2R)-tetrahydrofuran-2-ylmethoxy]phenyl}propanoic acid] | 1.2e-08 | – |
| Cc1c(-c2c(-c3ccc(F)cc3)sc3ncnc(OC(Cc4ccccc4OCC(F)(F)F)C(=O)O)c23)ccc(OCCN2CCN(C)CC2)c1Cl [Example 3, (2R)-2-{[(5Sa)-5-{3-chloro-2-methyl-4-[2-(4-methylpiperazin-1-yl)ethoxy]phenyl}-6-(4-fluorophenyl)thieno[2,3-d]pyrimidin-4-yl]oxy}-3-[2-(2,2,2-trifluoroethoxy)phenyl]propanoic acid] | 8.9e-09 | – |
| Cc1c(-c2c(-c3ccc(F)cc3)sc3ncnc(OC(Cc4ccccc4OCc4ccccn4)C(=O)O)c23)ccc(OCCN2CCN(C)CC2)c1Cl [Example 14, (2R)-2-{[(5Sa)-5-{3-chloro-2-methyl-4-[2-(4-methylpiperazin-1-yl)ethoxy]phenyl}-6-(4-fluorophenyl)thieno[2,3-d]pyrimidin-4-yl]oxy}-3-[2-(pyridin-2-ylmethoxy)phenyl]propanoic acid] | 1.3e-08 | – |
| Cc1c(-c2c(-c3ccc(F)cc3)sc3ncnc(OC(Cc4ccccc4OCc4ccnc(-c5ccccn5)n4)C(=O)O)c23)ccc(OCCN2CCN(C)CC2)c1Cl [Example 31, (2R)-2-{[(5Sa)-5-{3-chloro-2-methyl-4-[2-(4-methylpiperazin-1-yl)ethoxy]phenyl}-6-(4-fluorophenyl)thieno[2,3-d]pyrimidin-4-yl]oxy}-3-(2-{[2-(pyridin-2-yl)pyrimidin-4-yl]methoxy}phenyl)propanoic acid] | 5.6e-09 | – |
| Cc1c(-c2c(-c3ccc(F)cc3)sc3ncnc(OC(Cc4ccccc4OCc4ccnc(-c5cccnc5)n4)C(=O)O)c23)ccc(OCCN2CCN(C)CC2)c1Cl [Example 32, (2R)-2-{[(5Sa)-5-{3-chloro-2-methyl-4-[2-(4-methylpiperazin-1-yl)ethoxy]phenyl}-6-(4-fluorophenyl)thieno[2,3-d]pyrimidin-4-yl]oxy}-3-(2-{[2-(pyridin-3-yl)pyrimidin-4-yl]methoxy}phenyl)propanoic acid] | 4.8e-09 | – |
| Cc1c(-c2c(-c3ccc(F)cc3)sc3ncnc(OC(Cc4ccccc4OCc4ccnc(-c5ccncc5)n4)C(=O)O)c23)ccc(OCCN2CCN(C)CC2)c1Cl [Example 34, (2R)-2-{[(5Sa)-5-{3-chloro-2-methyl-4-[2-(4-methylpiperazin-1-yl)ethoxy]phenyl}-6-(4-fluorophenyl)thieno[2,3-d]pyrimidin-4-yl]oxy}-3-(2-{[2-(pyridin-4-yl)pyrimidin-4-yl]methoxy}phenyl)propanoic acid] | 3.3e-09 | – |

Continued, values first:

| IC50 [1] [M] | IC50 [2] [M] | Compound |
| --- | --- | --- |
| – | 2.2e-08 | Cc1c(-c2c(-c3ccc(F)cc3)sc3ncnc(OC(Cc4ccccc4OCC(F)(F)F)C(=O)O)c23)ccc(OCC2CCCN2C)c1Cl (single isomer, unassigned) [Example 659, (2R)-2-{[(5Sa)-5-{3-chloro-2-methyl-4-[((2R or S)-1-methylpyrrolidin-2-yl)methoxy]phenyl}-6-(4-fluorophenyl)thieno[2,3-d]pyrimidin-4-yl]oxy}-3-[2-(2,2,2-trifluoroethoxy)phenyl]propanoic acid] |
| – | 3.9e-06 | COc1ccccc1C[C@@H](Oc1ncnc2sc(-c3ccc(F)cc3)c(-c3cc(F)c(OCCN4CCN(C)CC4)c(Cl)c3C)c12)C(=O)O (single isomer, unassigned) [Example 665] |
| – | 8.9e-07 | CCc1sc2ncnc(O[C@@H](Cc3ccccc3OC)C(=O)O)c2c1-c1ccc(O)c(Cl)c1C (single isomer, unassigned) [Example 679] |
| – | 2.8e-05 | CCc1sc2ncnc(O[C@@H](Cc3ccccc3OC)C(=O)O)c2c1-c1ccc(O)c(Cl)c1C (single isomer, unassigned) [Example 680] |
| – | 6.7e-09 | CCc1sc2ncnc(OC(Cc3ccccc3OC)C(=O)O)c2c1-c1ccc(O)c(Cl)c1C (single isomer, unassigned) [Example 681] |
| – | 5.1e-07 | CCc1sc2ncnc(O[C@H](Cc3ccccc3OC)C(=O)O)c2c1-c1ccc(O)c(Cl)c1C (single isomer, unassigned) [Example 682] |
| – | 1.5e-06 | COc1ccccc1C[C@@H](Oc1ncnc2sc(-c3cccc(F)c3F)c(-c3ccc(C#CCN4CCN(C)CC4)c(Cl)c3C)c12)C(=O)O (single isomer, unassigned) [Example 716] |
| – | 2.7e-06 | C=C(C)c1sc2ncnc(O[C@H](Cc3ccccc3)C(=O)O)c2c1-c1cccc(Cl)c1C (single isomer, unassigned) [Example 719] |
| – | 4.4e-08 | C=C(C)c1sc2ncnc(O[C@H](Cc3ccccc3)C(=O)O)c2c1-c1cccc(Cl)c1C (single isomer, unassigned) [Example 720] |
| – | 3.53e-07 | COc1ccccc1-c1nccc(COc2ccccc2CC(Oc2ncnc3sc(-c4ccc(Oc5ccccc5)cc4)c(-c4ccc(OCCN5CCN(C)CC5)c(Cl)c4C)c23)C(=O)O)n1 (single isomer, unassigned) [Example 758] |
| – | 9.05e-08 | COc1ccccc1-c1nccc(COc2ccccc2CC(Oc2ncnc3sc(-c4ccc(OCCN5CCOCC5)cc4)c(-c4ccc(OCCN5CCN(C)CC5)c(Cl)c4C)c23)C(=O)O)n1 (single isomer, unassigned) [Example 763] |
| – | 6.58e-07 | COc1ccccc1-c1nccc(COc2ccccc2CC(Oc2ncnc3sc(-c4ccc(OCCc5ccccc5)cc4)c(-c4ccc(OCCN5CCN(C)CC5)c(Cl)c4C)c23)C(=O)O)n1 (single isomer, unassigned) [Example 765] |
